Measured values reported in ChEMBL document CHEMBL1201862, “PubChem BioAssay data set” (2004).
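Grown in 96-well plates, cells were treated for 48 hours with each compound at five concentrations. Insufficient inhibition: endpoint recorded as highest concentration tested. GI50 is the concentration that inhibits growth by half.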 Active and inactive are the calls of the source. Rule as the data show it: active = GI50 up to about 1.1 µM and inactive = higher.

Tests used:
Assay in all cases: NCI tumour cell line growth inhibition, 48 h
[1] = tested on: SN12C
[2] = tested on: A498
[3] = tested on: SF-268
[4] = tested on: OVCAR-8
[5] = tested on: M14
[6] = tested on: U-251
[7] = tested on: 786-0
[8] = tested on: UACC-62
[9] = tested on: K562
[10] = tested on: HL-60
[11] = tested on: SW-620
[12] = tested on: NCI-H226
[13] = tested on: KM12
[14] = tested on: TK-10
[15] = tested on: UO-31
[16] = tested on: XF498
[17] = tested on: HOP-62
[18] = tested on: SF-295
[19] = tested on: M19-MEL
[20] = tested on: NCI-H522
[21] = tested on: SK-MEL-28
[22] = tested on: OVCAR-5
[23] = tested on: NCI-H23
[24] = tested on: SK-MEL-2
[25] = tested on: RXF 393
[26] = tested on: HOP-18
[27] = tested on: HCC 2998
[28] = tested on: A549
[29] = tested on: SNB-19
[30] = tested on: HCT-15
[31] = tested on: MOLT-4
[32] = tested on: OVCAR-3
[33] = tested on: LOX IMVI
[34] = tested on: RPMI-8226
[35] = tested on: DLD-1
[36] = tested on: OVCAR-4
[37] = tested on: UACC-257
[38] = tested on: DMS-114
[39] = tested on: HCT-116
[40] = tested on: SNB-78
[41] = tested on: Malme-3M
[42] = tested on: SF-539
[43] = tested on: KM-20L2
[44] = tested on: SK-OV-3
[45] = tested on: SNB-75
[46] = tested on: CCRF-CEM
[47] = tested on: HT-29
[48] = tested on: COLO 205
[49] = tested on: EKVX
[50] = tested on: ACHN
[51] = tested on: NCI-H460
[52] = tested on: RXF 631

Measured: GI50

O=C(CC1(O)C(=O)Nc2ccc([N+](=O)[O-])cc21)c1ccncc1 (configuration not stated)
83.8 µM: [30]
inactive: [1] 43.6 µM | [2] > 100 µM | [3] 36.7 µM | [4] 46.2 µM | [5] 51.6 µM | [6] 20.1 µM | [7] 69.7 µM | [8] 29.2 µM | [9] 20.5 µM | [10] 19.3 µM | [11] 20.5 µM | [12] 83 µM | [13] 39 µM | [14] > 100 µM | [15] 56.1 µM | [16] 15.3 µM | [17] > 100 µM | [18] 80.2 µM | [19] 20.4 µM | [20] 29.8 µM | [21] 32.3 µM | [22] > 100 µM | [23] 22.1 µM | [24] 85.1 µM | [25] 14.8 µM | [26] 27.8 µM | [27] 67 µM | [28] > 100 µM | [29] 54.3 µM | [31] 24.2 µM | [32] 25.2 µM | [33] 15.5 µM | [34] 25.2 µM | [35] 37.4 µM | [36] 22.1 µM | [37] 17.9 µM | [38] 30.5 µM | [39] 30.8 µM | [40] 47.2 µM | [41] 21.8 µM | [42] 51.3 µM | [43] 76.4 µM | [44] > 100 µM | [45] 26.1 µM | [46] 29 µM | [47] 34 µM | [48] 77.1 µM | [49] > 100 µM | [50] 43.3 µM | [51] 48.6 µM | [52] 20.7 µM
